Test results published in patent publication US20240217967A1, “INDOLINE DERIVATIVES AS DDRS INHIBITORS” (CHIESI FARMACEUTICI S.P.A., priority 2021, published 2024).
Values joined by “and” are separate entries in the source; they are usually repeats but may differ in a detail not shown here. Equal values may be shown once. Read-outs that look alike come from different tables or passages of the source.

Tests used:
DDR1 [1] = target: T1, DDR1 (Homo sapiens, UniProt Q08345); experiment: DDR1 LanthaScreen Europium Kinase Binding assay
T1 sequence (Q08345 19-913): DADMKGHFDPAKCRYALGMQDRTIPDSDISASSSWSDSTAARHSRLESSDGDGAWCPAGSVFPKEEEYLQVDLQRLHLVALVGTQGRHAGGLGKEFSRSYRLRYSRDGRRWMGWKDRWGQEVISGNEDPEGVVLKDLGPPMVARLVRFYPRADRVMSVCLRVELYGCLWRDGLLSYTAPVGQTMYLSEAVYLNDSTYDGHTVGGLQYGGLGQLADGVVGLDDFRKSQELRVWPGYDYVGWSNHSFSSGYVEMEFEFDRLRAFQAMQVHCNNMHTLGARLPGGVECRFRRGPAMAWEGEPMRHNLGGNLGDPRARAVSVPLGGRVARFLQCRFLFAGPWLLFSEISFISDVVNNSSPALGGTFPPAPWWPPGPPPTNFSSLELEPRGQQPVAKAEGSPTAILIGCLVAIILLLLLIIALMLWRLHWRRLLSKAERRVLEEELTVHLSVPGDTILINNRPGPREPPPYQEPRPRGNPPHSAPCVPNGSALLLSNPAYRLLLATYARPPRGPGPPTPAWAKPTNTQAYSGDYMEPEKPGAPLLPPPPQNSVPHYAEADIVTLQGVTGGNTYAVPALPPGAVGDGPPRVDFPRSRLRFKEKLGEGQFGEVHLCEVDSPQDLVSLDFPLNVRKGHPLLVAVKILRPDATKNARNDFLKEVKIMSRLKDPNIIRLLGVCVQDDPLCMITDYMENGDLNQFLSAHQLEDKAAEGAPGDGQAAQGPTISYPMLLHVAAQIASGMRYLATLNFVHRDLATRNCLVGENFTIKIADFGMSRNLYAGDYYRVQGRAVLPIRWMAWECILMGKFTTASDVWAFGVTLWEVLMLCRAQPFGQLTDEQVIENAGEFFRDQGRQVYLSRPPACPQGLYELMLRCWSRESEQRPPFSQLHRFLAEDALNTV
Procedure: (§1) DDR1 and DDR2 binding assays were performed using Life Technologies LanthaScreen™ Europium Kinase Binding assay. The compounds were incubated with 5 nM DDR1 (Carna Biosciences) or 5 nM DDR2 (Life Technologies) for 1 hour at room temperature in white 384-well OptiPlate (PerkinElmer), containing 20 nM or 10 nM Kinase Tracer 178 respectively and 2 nM Europium labelled anti-GST antibody (Life Technologies) in assay buffer (50 mM HEPES pH 7.5, 10 mM MgCI2, 1 mM EGTA and 0.01% BRIJ35). The ratio of fluorescence emission 665 nm/615 nm after excitation at 340 nm was obtained using the Tecan Spark 20M plate reader. IC50 values were determined in GraphPad Prism 7.0 software, using 4 parameter model: log(inhibitor) vs. response. IC50 values were converted in Ki using the Cheng-Prusoff equation (Ki=IC50/(1+[Tracer]/Kd).

DDR2 = target: T2, DDR2 (Homo sapiens, UniProt Q16832); experiment: DDR2 LanthaScreen Europium Kinase Binding assay
T2 sequence (Q16832 22-855): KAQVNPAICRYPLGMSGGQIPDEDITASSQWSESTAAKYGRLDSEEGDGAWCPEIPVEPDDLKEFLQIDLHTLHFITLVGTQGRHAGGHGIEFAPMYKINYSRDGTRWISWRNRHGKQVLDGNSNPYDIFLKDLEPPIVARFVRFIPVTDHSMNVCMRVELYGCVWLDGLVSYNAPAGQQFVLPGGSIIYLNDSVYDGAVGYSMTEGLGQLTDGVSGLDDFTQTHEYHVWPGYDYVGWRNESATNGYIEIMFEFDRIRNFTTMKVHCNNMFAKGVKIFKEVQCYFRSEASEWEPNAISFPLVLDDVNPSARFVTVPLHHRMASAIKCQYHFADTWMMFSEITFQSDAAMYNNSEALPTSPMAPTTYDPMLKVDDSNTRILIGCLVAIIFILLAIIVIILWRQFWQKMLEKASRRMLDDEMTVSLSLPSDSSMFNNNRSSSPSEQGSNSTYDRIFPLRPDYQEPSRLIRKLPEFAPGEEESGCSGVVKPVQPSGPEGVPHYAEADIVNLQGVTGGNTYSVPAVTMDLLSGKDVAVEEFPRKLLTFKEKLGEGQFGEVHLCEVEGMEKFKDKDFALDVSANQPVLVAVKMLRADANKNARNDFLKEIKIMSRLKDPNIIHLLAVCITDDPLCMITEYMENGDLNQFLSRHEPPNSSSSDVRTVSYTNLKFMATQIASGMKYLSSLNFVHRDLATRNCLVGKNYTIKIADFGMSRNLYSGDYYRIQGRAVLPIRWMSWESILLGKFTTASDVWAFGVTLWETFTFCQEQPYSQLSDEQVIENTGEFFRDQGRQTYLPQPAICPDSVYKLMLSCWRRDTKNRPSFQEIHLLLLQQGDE
Procedure: as §1

DDR1 [2] = target: T1, DDR1; experiment: DDR1 cell based assay (PathHunter U2OS DDR1, collagen II stimulation); conditions: U2OS-DDR1 cells, bovine Type II Collagen stimulation
Procedure: The inhibition of DDR1 receptor activation by compounds was evaluated by PathHunter® U2OS DDR1 assay (Eurofins DiscoverX), according to the manufacturer's instructions. Briefly, U2OS-DDR1 cells were seeded in white 384-well plates at a density of 5000 cells/well and incubated for 2 hours at 37° C. and 5% CO2. Cells were then treated with compounds at different concentrations and incubated for 30 minutes, before stimulation with bovine Type II Collagen 20 μg/ml and incubation overnight at 37° C. and 5% CO2. PathHunter Detection Reagents were prepared according to the protocol provided by DiscoverX and 20 μl/well of this mix were added to each well. After incubating the plates for 1 hour at room temperature in the dark, luminescence signal was acquired with a plate reader. Raw data were normalized to vehicle control (0% for normalization) and positive control (100% for normalization; cells treated with 20 μg/ml collagen II) and IC50 parameters were calculated in GraphPad Prism 8.0 software, using sigmoidal dose-response curve fitting with variable slope.

[3] = binding affinity, IC50 converted in Ki using Cheng-Prusoff, read-out: Ki DDR1
[4] = binding affinity, IC50 converted in Ki using Cheng-Prusoff, read-out: Ki DDR2
[5] = binding assay, Ki from IC50 by Cheng-Prusoff, read-out: DDR1 Ki
[6] = binding assay, Ki from IC50 by Cheng-Prusoff, read-out: DDR2 Ki

| SMILES | Ki (DDR1 [1]; [3]) | Ki (DDR2; [4]) | IC50 (DDR1 [2]) | Ki (DDR1 [1]; [5]) | Ki (DDR2; [6]) |
| --- | --- | --- | --- | --- | --- |
| CN1CCN(Cc2cc(C(=O)Nc3ccc4c(c3)N(C(=O)Cc3cnc5ccccn35)CC4)cc(C(F)(F)F)c2)CC1 [Example C2, N-(1-(2-(imidazo[1,2-a]pyridin-3-yl)acetyl)indolin-6-yl)-3-((4-methylpiperazin-1-yl)methyl)-5-(trifluoromethyl)benzamide] | – | – | – | 600 nM | 58000 nM |
| Cc1n[nH]c2ncc(CN3CCc4ccc(C(=O)Nc5cc(C(=O)NCCN(C)C)cc(C(F)(F)F)c5)cc43)cc12 [Example 73, N-(3-((2-(dimethylamino)ethyl)carbamoyl)-5-(trifluoromethyl)phenyl)-1-((3-methyl-1H-pyrazolo[3,4-b]pyridin-5-yl)methyl)indoline-6-carboxamide] | < 25 nM | < 25 nM | < 25 nM | – | – |
| CN(C)Cc1c[nH]c2ncc(CN3CCc4ccc(C(=O)Nc5cncc(C(F)(F)F)c5)cc43)cc12 [Example 83, 1-((3-((dimethylamino)methyl)-1H-pyrrolo[2,3-b]pyridin-5-yl)methyl)-N-(5-(trifluoromethyl)pyridin-3-yl)indoline-6-carboxamide] | < 25 nM | < 25 nM | < 25 nM | – | – |
| O=C(Nc1cc(CN2CCCC2)cc(C(F)(F)F)c1)c1ccc2c(c1)N(Cc1cnc3cnccn13)CC2 [Example 50, 1-(imidazo[1,2-a]pyrazin-3-ylmethyl)-N-(3-(pyrrolidin-1-ylmethyl)-5-(trifluoromethyl)phenyl)indoline-6-carboxamide] | < 25 nM | < 25 nM | 25 to 50 nM | – | – |
| O=C(Nc1cccc(OC(F)(F)F)c1)c1ccc2c(c1)N(Cc1cnc3ccccn13)CC2 [Example 55, 1-(imidazo[1,2-a]pyridin-3-ylmethyl)-N-(3-(trifluoromethoxy)phenyl)indoline-6-carboxamide] | < 25 nM | 25 to 50 nM | < 25 nM | – | – |
| CN1CCN(Cc2cc(NC(=O)c3ccc4c(c3)N(C(=O)Cc3cnc5ccccn35)CC4)cc(C(F)(F)F)c2)CC1 [Example C1, 1-(2-(imidazo[1,2-a]pyridin-3-yl)acetyl)-N-(3-((4-methylpiperazin-1-yl)methyl)-5-(trifluoromethyl)phenyl)indoline-6-carboxamide] | – | – | – | > 600 nM and 58000 nM | 58000 nM |

More lines, now with the values ahead:

| Ki (DDR1 [1]; [3]) | Ki (DDR2; [4]) | IC50 (DDR1 [2]) | Ki (DDR1 [1]; [5]) | Ki (DDR2; [6]) | SMILES |
| --- | --- | --- | --- | --- | --- |
| < 25 nM | < 25 nM | 25 to 50 nM | – | – | CCC1CN(Cc2cnc3cnccn23)c2cc(C(=O)Nc3cc(-n4cnc(C)c4)cc(C(F)(F)F)c3)ccc21 (single isomer, unassigned) [Example 64, 3-ethyl-1-(imidazo[1,2-a]pyrazin-3-ylmethyl)-N-(3-(4-methyl-1H-imidazol-1-yl)-5-(trifluoromethyl)phenyl)indoline-6-carboxamide] |
| < 25 nM | < 25 nM | 25 to 50 nM | – | – | Cc1cn(-c2cc(C(=O)Nc3ccc4c(c3)N(C(=O)c3cnc5ccccn35)CC4)cc(C(F)(F)F)c2)cn1 [Example 19, N-(1-(imidazo[1,2-a]pyridine-3-carbonyl)indolin-6-yl)-3-(4-methyl-1H-imidazol-1-yl)-5-(trifluoromethyl)benzamide] |
| < 25 nM | < 25 nM | < 25 nM | – | – | Cc1n[nH]c2ncc(CN3CCc4ccc(C(=O)Nc5cc(CN6CCN(C)CC6)cc(C(F)(F)F)c5)cc43)cc12 [Example 68, 1-((3-methyl-1H-pyrazolo[3,4-b]pyridin-5-yl)methyl)-N-(3-((4-methylpiperazin-1-yl)methyl)-5-(trifluoromethyl)phenyl)indoline-6-carboxamide] |
| < 25 nM | < 25 nM | 50 to 80 nM | – | – | O=C(Nc1cc(OCCN2CCCC2)cc(C(F)(F)F)c1)c1ccc2c(c1)N(Cc1cnc3cnccn13)CC2 [Example 52, 1-(imidazo[1,2-a]pyrazin-3-ylmethyl)-N-(3-(2-(pyrrolidin-1-yl)ethoxy)-5-(trifluoromethyl)phenyl)indoline-6-carboxamide] |
